# Values quoted from earlier work in PubChem BioAssay AID1259409 (Chemical Carcinogenesis Research Information System (CCRIS), 2018).
# System: rodent chemically induced tumor inhibition, incidence and multiplicity
# Assay: CCRIS tumor inhibitor studies
# Settings: for outcome: Carcinogen: N-methyl-N-nitrosourea (684-93-5), study duration 4 wks, Route [Inhibitor]: Oral, Species: Rat, Strain/Sex: F344/DuCrj/Male, Dose [Carcinogen]: 2 mg/rat, 3 x a wk for 4 wks
smiles,measurement,setting,value
CCCCCCCCCCCCOC(=O)c1cc(O)c(O)c(O)c1,"tumour outcome (control, treated, inhibition, significance)","Carcinogen: 7,12-DIMETHYLBENZ[A]ANTHRACENE, 57-97-6, Dose [Inhibitor]: 0, 10 UMOL IN 0.4 ML ACETONE 20 MIN PRIOR TO EACH PROMOTER DOSE (STUDY DURATION: 47 WK), Route [Inhibitor]: DERMAL, Species: MOUSE, Strain/Sex: CF-1/FEMALE, Target Tissue: Type of Lesion: SKIN: CARCINOMA, Dose [Carcinogen]: 100 NMOL IN 0.2 ML ACETONE ONCE","67%, 17%, 75%, not calculated"
same,"tumour outcome (control, treated, inhibition, significance)","Carcinogen: 7,12-DIMETHYLBENZ[A]ANTHRACENE, 57-97-6, Dose [Inhibitor]: 0, 10 UMOL IN 0.4 ML ACETONE 20 MIN PRIOR TO EACH PROMOTER DOSE (STUDY DURATION: 47 WK), Route [Inhibitor]: DERMAL, Species: MOUSE, Strain/Sex: CF-1/FEMALE, Target Tissue: Type of Lesion: SKIN: PAPILLOMA, Dose [Carcinogen]: 100 NMOL IN 0.2 ML ACETONE ONCE","94%, 90%, 4%, not calculated"
Cl,"tumour outcome (control, treated, inhibition, significance)","Carcinogen: 1,2-DIMETHYLHYDRAZINE, 540-73-8, Dose [Inhibitor]: 0, 5 G/L IN DRINKING WATER FOR DURATION OF STUDY BEGINNING 7 D PRIOR TO CARCINOGEN TREATMENT (STUDY DURATION: 8 MO), Route [Inhibitor]: ORAL, Species: RAT, Strain/Sex: BD6/MALE, Target Tissue: Type of Lesion: INTESTINE: TUMOR, Dose [Carcinogen]: 20 MG/KG BW 1/WK FOR 20 WK, Promoter: NONE USED","100%, 100%, 0%, not significant"
same,"tumour outcome (control, treated, inhibition, significance)","Carcinogen: BRACKEN FERN, Dose [Inhibitor]: 20 MG/G DIET/D FOR 12 MO SIMULTANEOUS WITH CARCINOGEN (STUDY DURATION: 12 MO), Route [Inhibitor]: ORAL, Species: RAT, Strain/Sex: ALBINO/?, Target Tissue: Type of Lesion: INTESTINE: TUMOR, Dose [Carcinogen]: 0.33 G IN DIET/D FOR 12 MO, Promoter: NONE USED","30/30 (100%), 16/23 (70%), 30%, p<0.01"
same,"tumour outcome (control, treated, inhibition, significance)","Carcinogen: BRACKEN FERN, Dose [Inhibitor]: 20 MG/G DIET/D FOR 12 MO SIMULTANEOUS WITH CARCINOGEN (STUDY DURATION: 12 MO), Route [Inhibitor]: ORAL, Species: RAT, Strain/Sex: ALBINO, Target Tissue: Type of Lesion: URINARY BLADDER: TUMOR, Dose [Carcinogen]: 0.33 G IN DIET/D FOR 12 MO, Promoter: NONE USED","22/30 (73%), 4/23 (17%), 77%, p<0.001"
same,"tumour outcome (control, treated, inhibition, significance)","Carcinogen: N-METHYL-N'-NITRO-N-NITROSOGUANIDINE, 70-25-7, Dose [Inhibitor]: 0, 1% IN DRINKING WATER BEGINNING 1 WK POST CARCINOGEN TREATMENT AND CONTINUING FOR STUDY DURATION (STUDY DURATION: 52 W, Route [Inhibitor]: ORAL, Species: RAT, Strain/Sex: SHR/MALE, Target Tissue: Type of Lesion: STOMACH: ADENOCARCINOMA, Dose [Carcinogen]: 40 ML OF A 25 MG/ML SOLUTION 1/2 D IN DRINKING WATER FOR 25 WK","65%, 20%, 69%, p<0.02"
same,"tumour outcome (control, treated, inhibition, significance)","Carcinogen: N-METHYL-N'-NITRO-N-NITROSOGUANIDINE, 70-25-7, Dose [Inhibitor]: 0, 1% IN DRINKING WATER BEGINNING 1 WK POST CARCINOGEN TREATMENT AND CONTINUING FOR STUDY DURATION (STUDY DURATION: 52 W, Route [Inhibitor]: ORAL, Species: RAT, Strain/Sex: WKR/MALE, Target Tissue: Type of Lesion: STOMACH: ADENOCARCINOMA, Dose [Carcinogen]: 40 ML OF A 25 MG/ML SOLUTION 1/2 D IN DRINKING WATER FOR 25 WK","25%, 20%, 20%, not calculated"
same,"tumour outcome (control, treated, inhibition, significance)","Carcinogen: N-METHYL-N'-NITRO-N-NITROSOGUANIDINE, 70-25-7, Dose [Inhibitor]: 0, 1% IN DRINKING WATER FOR 27 WK BEGINNING POST CARCINOGEN DOSE (STUDY DURATION: 52 WK), Route [Inhibitor]: ORAL, Species: RAT, Strain/Sex: WISTAR/MALE, Target Tissue: Type of Lesion: STOMACH: TUMOR, Dose [Carcinogen]: 25 UG/ML IN DRINKING WATER FOR 25 WK, Promoter: DEOXYCORTICOSTERONE ACETATE, 56-47-3","11/20 (55%), 3/18 (17%), 69%, p<0.05"
same,"tumour outcome (control, treated, inhibition, significance)","Carcinogen: N-METHYL-N'-NITRO-N-NITROSOGUANIDINE, 70-25-7, Dose [Inhibitor]: 0, 4% IN DIET FOR 25 WK BEGINNING 1 WK POST CARCINOGEN TREATMENT (STUDY DURATION: 52 WK), Route [Inhibitor]: ORAL, Species: RAT, Strain/Sex: WISTAR/MALE, Target Tissue: Type of Lesion: STOMACH: ADENOCARCINOMA, Dose [Carcinogen]: 25 UG/ML IN DRINKING WATER FOR 25 WK, Promoter: SODIUM CHLORIDE, 7647-14-5","17/19 (89%), 10/18 (56%), 37%, not significant"
same,"tumour outcome (control, treated, inhibition, significance)","Carcinogen: N-METHYL-N'-NITRO-N-NITROSOGUANIDINE, 70-25-7, Dose [Inhibitor]: 0, 8% IN DIET FOR 25 WK BEGINNING 1 WK POST CARCINOGEN TREATMENT (STUDY DURATION: 52 WK), Route [Inhibitor]: ORAL, Species: RAT, Strain/Sex: WISTAR/MALE, Target Tissue: Type of Lesion: STOMACH: ADENOCARCINOMA, Dose [Carcinogen]: 25 UG/ML IN DRINKING WATER FOR 25 WK, Promoter: SODIUM CHLORIDE, 7647-14-5","17/19 (89%), 5/19 (26%), 71%, p<0.01"
CCCCCCCCCCCCCCCCCCCCCC(O)CC(O)CCCCC (stereo not drawn),"tumour outcome (control, treated, inhibition, significance)","Carcinogen: 7,12-DIMETHYLBENZ[A]ANTHRACENE, 57-97-6, Dose [Inhibitor]: 0, 2 UMOL APPLIED 30 MIN PRIOR TO EACH PROMOTER DOSE 2/WK FOR 20 WK BEGINNING 7 D POST CARCINOGEN DOSE (STUDY DURATION:, Route [Inhibitor]: DERMAL, Species: MOUSE, Strain/Sex: ICR/FEMALE, Target Tissue: Type of Lesion: SKIN: PAPILLOMA, Dose [Carcinogen]: 50 UG IN 100 µL ACETONE ONCE, Promoter: 12-O-TETRADECANOLYPHORBOL-13-ACETATE, 16561-29-8","93%, 20%, 78%, not significant"
C[Si](C)(C)c1cc(C(=O)Nc2ccc(C(=O)O)cc2)cc([Si](C)(C)C)c1,outcome,"Dose [Inhibitor]: 0, 0.8 mg/kg by gavage 5 d/wk for 1 wk, Dose [Inhibitor]: 0, 0.8 mg/kg by gavage 5 d/wk for 1 wk",colon: tumors
same,outcome,"Dose [Inhibitor]: 0, 0.8 mg/kg by gavage 5 d/wk for 4 wks, Dose [Inhibitor]: 0, 0.8 mg/kg by gavage 5 d/wk for 4 wks",colon: tumors
same,outcome,"Dose [Inhibitor]: 0, 8 mg/kg by gavage 5 d/wk for 1 wk, Dose [Inhibitor]: 0, 8 mg/kg by gavage 5 d/wk for 1 wk",colon: tumors
same,outcome,"Dose [Inhibitor]: 0, 8 mg/kg by gavage 5 d/wk for 4 wks, Dose [Inhibitor]: 0, 8 mg/kg by gavage 5 d/wk for 4 wks",colon: tumors
Oc1ccccc1,"tumour outcome (control, treated, inhibition, significance)","Carcinogen: BENZO[A]PYRENE, 50-32-8, Dose [Inhibitor]: 0.03 MMOL/G OF DIET STARTING 8 D BEFORE AND CONTINUING THROUGH 3 D AFTER LAST CARCINOGEN TREATMENT (STUDY DURATION: 148, Route [Inhibitor]: ORAL, Species: MOUSE, Strain/Sex: ICR/FEMALE, Target Tissue: Type of Lesion: FORESTOMACH: NEOPLASM, Dose [Carcinogen]: 1 MG IN 0.2 ML CORN OIL 2/WK FOR 4 WK, Promoter: NONE USED","100%, 100%, 0%, not significant"
same,"tumour outcome (control, treated, inhibition, significance)","Carcinogen: BENZO[A]PYRENE, 50-32-8, Dose [Inhibitor]: 3 MG IN 0.1 ML ACETONE 3/WK ADMINISTERED SIMULTANEOUSLY WITH CARCINOGEN FOR DU RATION OF STUDY (STUDY DURATION: 368 D), Route [Inhibitor]: DERMAL, Species: MOUSE, Strain/Sex: ICR/FEMALE, Target Tissue: Type of Lesion: SKIN: PAPILLOMA, Dose [Carcinogen]: 5 UG IN 0.1 ML ACETONE 3/WK FOR DURATION OF STUDY, Promoter: NONE USED","14/50 (28%), 7/50 (14%), 50%, not calculated"
same,"tumour outcome (control, treated, inhibition, significance)","Carcinogen: BENZO[A]PYRENE, 50-32-8, Dose [Inhibitor]: 3 MG IN 0.1 ML ACETONE 3/WK ADMINISTERED SIMULTANEOUSLY WITH CARCINOGEN FOR DURATION OF STUDY (STUDY DURATION: 368 D), Route [Inhibitor]: DERMAL, Species: MOUSE, Strain/Sex: ICR/FEMALE, Target Tissue: Type of Lesion: SKIN: SQUAMOUS CARCINOMA, Dose [Carcinogen]: 5 UG IN 0.1 ML ACETONE 3/WK FOR DURATION OF STUDY, Promoter: NONE USED","10/50 (20%), 3/50 (6%), 70%, not calculated"
